Source: PubChem BioAssay (NCI)
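Cultured in 96-well plates, cells were exposed to test compound for 48 hours across five concentrations. GI50 is the concentration that inhibits growth by half. TGI marks complete inhibition of growth.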

Columns and labels:
Experiment in all cases: NCI-60 cell line screen, 48 h
HOP-92 NSCLC = system: HOP-92 NSCLC
SR leukemia = system: SR leukemia
DU-145 prostate = system: DU-145 prostate
ACHN renal = system: ACHN renal
BT-549 breast = system: BT-549 breast
MDA-MB-435 = system: MDA-MB-435
SW-620 colon = system: SW-620 colon
NCI-H522 lung = system: NCI-H522 lung
TK-10 renal = system: TK-10 renal
RPMI-8226 leukemia = system: RPMI-8226 leukemia
A549 NSCLC = system: A549 NSCLC
IGROV1 ovarian = system: IGROV1 ovarian

Row | Compound | GI50 (HOP-92 NSCLC) [µM] | TGI (HOP-92 NSCLC) [µM] | GI50 (SR leukemia) [µM] | TGI (SR leukemia) [µM] | GI50 (DU-145 prostate) [µM] | TGI (DU-145 prostate) [µM] | GI50 (ACHN renal) [µM] | TGI (ACHN renal) [µM] | GI50 (BT-549 breast) [µM] | TGI (BT-549 breast) [µM] | GI50 (MDA-MB-435) [µM] | TGI (MDA-MB-435) [µM] | TGI (SW-620 colon) [µM] | TGI (NCI-H522 lung) [µM] | TGI (TK-10 renal) [µM] | TGI (RPMI-8226 leukemia) [µM] | TGI (A549 NSCLC) [µM] | TGI (IGROV1 ovarian) [µM] | GI50 (A549 NSCLC) [µM]
1 | CCCCCCCCCCCCCCCCCCOc1ccccc1CC(=O)OCC[N+]1(C)CCCCC1 | 1.32 | 3.35 | 1.93 | 4.97 | 3.02 | 9.61 | 5.01 | 25.8 | 2.65 | 7.1 | 1.7 | 3.2 | – | – | – | – | – | – | –
2 | O=C([O-])C[n+]1ccccc1 | – | > 100 | – | – | – | > 100 | – | > 100 | – | > 100 | – | > 100 | > 100 | > 100 | > 100 | > 100 | > 100 | > 100 | –
3 | CN(CCCCCl)P(=O)(OCc1ccc([N+](=O)[O-])o1)OC[C@H]1O[C@@H](n2cc(F)c(=O)[nH]c2=O)C[C@@H]1O (stereo partly specified) | – | 20.3 | – | 24.2 | – | 40.2 | – | > 100 | – | 49.1 | – | 39 | > 81.8 | 19.5 | > 79.8 | 38.4 | > 26.4 | > 63.5 | –
4 | NN(CC(=O)O)CC(=O)O | – | – | – | – | – | > 100 | – | > 100 | – | > 100 | – | > 100 | > 100 | > 100 | > 100 | > 100 | > 100 | > 100 | –
5 | O=C(O)c1cc([N+](=O)[O-])cc2c(=O)c3cnccc3[nH]c12 | – | – | – | > 100 | – | > 100 | – | – | – | > 100 | – | > 100 | – | > 100 | – | > 100 | – | > 100 | –
6 | Nc1ncnc2nc[nH]c12 | – | > 250 | – | – | – | – | – | – | – | – | – | – | > 250 | 220 | – | > 250 | > 250 | > 250 | 75.6
7 | Nc1ncnc2c1ncn2C=C=CCO | – | > 100 | – | > 100 | – | > 100 | – | – | – | > 100 | – | > 100 | > 100 | – | > 100 | > 100 | – | – | –
8 | CCOc1ccc(NC(=O)C(=O)CC(=O)c2sc(NNC(C)=O)nc2C)cc1 | – | > 100 | – | > 100 | – | – | – | > 100 | – | – | – | – | > 100 | > 100 | > 100 | > 100 | > 100 | > 100 | –
9 | COc1cc2c(c(O)c1OC)-c1c(cc(OC)c(OC)c1OC)CC(C)C(C)C2 (stereo unspecified) | – | > 100 | – | 57 | – | > 100 | – | > 100 | – | > 100 | – | > 100 | > 100 | > 100 | > 100 | > 100 | > 100 | > 100 | –
10 | CC(C)=CCC/C(C)=C/CC/C(C)=C/CC/C(C)=C/C=C/C=C(\C)CC/C=C(\C)CC/C=C(\C)CCC=C(C)C | – | > 75.5 | – | – | – | > 100 | – | 53 | – | > 100 | – | > 100 | > 100 | 31.4 | > 74.3 | > 100 | > 100 | 36.4 | –
11 | CCOC(=O)C1=C(C)OC2(O)C=CC(O)=C3C(=O)N(c4ccccc4)C(=O)C312 (stereo unspecified) | – | > 100 | – | 53.2 | – | > 100 | – | > 100 | – | 70.5 | – | > 100 | – | 35.6 | > 100 | 86.1 | > 100 | 68.2 | –
12 | CN1CCOC(c2ccc(Cl)cc2)O1 (stereo unspecified) | – | > 100 | – | > 100 | – | – | – | > 100 | – | > 100 | – | > 100 | > 100 | > 100 | > 100 | – | > 100 | > 100 | –
13 | C=C1c2ccccc2C(=O)c2c1c1c(C(=O)OC)c(O)ccc1n2Cc1ccccc1 | – | 0.613 | – | – | – | 0.745 | – | 1.74 | – | 1.69 | – | 0.885 | 1.42 | 0.795 | 1.55 | 0.53 | 3.6 | 0.799 | –
